Measured values as given in patent publication US4120864A, “1,2,4-4H-triazole derivatives” (Rohm and Haas Company, priority 1972, dated 1978).
Where a name gives a salt, the structure may show the parent alone. Read-outs that look alike come from different tables or passages of the source.

Key:
[1] = test system: wheat leaf rust, Puccinia recondita; test: whole plant or invertebrate; type: in vivo; conditions: foliar; for pest or weed control at 280.212 g/ha: read-out: % Control (without rain), foliar, 0.25 lb.; for pest or weed control at 1120.85 g/ha: read-out: % Control (without rain), foliar, 1 lb.
[2] = test system: wheat leaf rust, Puccinia recondita; test: whole plant or invertebrate; type: in vivo; conditions: foliar; for pest or weed control at 280.212 g/ha: read-out: % Control (with 1" of rain), foliar, 0.25 lb., 1" of rain; for pest or weed control at 1120.85 g/ha: read-out: % Control (with 1" of rain), foliar, 1 lb., 1" of rain

| Molecule | pest or weed control at 280.212 g/ha [1] [%] | pest or weed control at 1120.85 g/ha [1] [%] | pest or weed control at 280.212 g/ha [2] [%] | pest or weed control at 1120.85 g/ha [2] [%] | % Control (without rain) ([1]; 0.25 lb.) [%] | % Control (without rain) ([1]; 1 lb.) [%] | % Control (with 1" of rain) ([2]; 0.25 lb.) [%] | % Control (with 1" of rain) ([2]; 1 lb.) [%] |
| --- | --- | --- | --- | --- | --- | --- | --- | --- |
| CC=CCn1cnnc1 [Example 14, 4-(2-butenyl)-1,2,4-triazole] | 100 | 100 | 99 | 100 |  |  |  |  |
| CC(C)(C)n1cnnc1S [Example 77, 3-mercapto-4-t-butyl-1,2,4-triazole] | 68 | 100 | 57 | 80 |  |  |  |  |
| COc1ccc(-n2cnnc2)cc1 [Example 60, 4-(4-methoxyphenyl)-1,2,4-triazole] | 100 | 100 | 95 | 97 |  |  |  |  |
| Clc1ccc(Cn2cnnc2)c(Cl)c1 [Example 52, 4-(2,4-dichlorobenzyl)-1,2,4-triazole] | 0 | 20 | 5 | 10 |  |  |  |  |
| CCCCCCCCCCn1cnnc1 [Example 12, 4-n-decyl-1,2,4-triazole] | 57 | 100 | 48 | 78 |  |  |  |  |
| COc1ccc(Cn2cnnc2)cc1 [Example 50, 4-(4-methoxybenzyl)-1,2,4-triazole] | 100 |  |  | 100 |  |  |  |  |
| Clc1ccc(OCCn2cnnc2)cc1 [Example 26] | 0 | 10 | 0 | 0 |  |  |  |  |
| CCCCn1cnnc1SC(=O)CCC [Example 117, 3-butyrylmercapto-4-n-butyl-1,2,4-triazole] | 100 | 100 | 95 | 99 |  |  |  |  |
| CCCCCn1cnnc1 [Example 7, 4-n-pentyl-1,2,4-triazole] | 100 | 100 | 100 | 100 |  |  |  |  |
| CCCCn1cnnc1SC(=O)c1cccc([N+](=O)[O-])c1 [Example 122, 3-(3-nitrobenzoylmercapto)-4-n-butyl-1,2,4-triazole] | 100 | 100 | 100 | 100 |  |  |  |  |
| CC(C)(C)CC(C)(C)n1cnnc1S [Example 81, 3-mercapto-4-t-octyl-1,2,4-triazole] | 100 | 100 | 53 | 86 |  |  |  |  |
| c1ccc2[nH]c(-n3cnnc3)nc2c1 [Example 71, 4-(2-benzimidazolyl)-1,2,4-triazole] | 10 | 20 | 0 | 0 |  |  |  |  |
| Clc1cccc2sc(-n3cnnc3)nc12 [Example 70] | 100 | 100 | 100 |  |  |  |  |  |
| c1csc(-n2cnnc2)n1 [Example 68, 4-(2-thiazyl)-1,2,4-triazole] | 66 | 73 | 67 | 96 |  |  |  |  |
| O=C(Sc1nncn1-c1ccccc1)c1cccc([N+](=O)[O-])c1 [Example 130, 3-(3-nitrobenzoylmercapto)-4-phenyl-1,2,4-triazole] | 97 | 100 |  |  |  |  |  |  |
| CCn1cnnc1S [Example 74, 3-mercapto-4-ethyl-1,2,4-triazole] | 40 | 60 | 0 | 0 |  |  |  |  |
| CCCCn1cnnc1SC(=O)c1cc(OC)c(OC)c(OC)c1 [Example 123, 3-(3,4,5-trimethoxybenzoylmercapto)-4-n-butyl-1,2,4-triazole] | 98 | 100 | 90 | 98 |  |  |  |  |
| OCCCCn1cnnc1 [Example 21, 4-(4-hydroxybutyl)-1,2,4-triazole] | 10 | 10 | 0 | 0 |  |  |  |  |
| 4-(1,3-dihydroxypropyl)-1,2,4-triazole [Example 22] |  |  |  |  | 90 | 90 | 0 | 0 |
| CCC(C)n1cnnc1 (centres unmarked) [Example 5, 4-sec-butyl-1,2,4-triazole] | 97 | 99 | 78 | 69 |  |  |  |  |

| Molecule | pest or weed control at 280.212 g/ha [1] [%] | pest or weed control at 1120.85 g/ha [1] [%] | pest or weed control at 280.212 g/ha [2] [%] | pest or weed control at 1120.85 g/ha [2] [%] | % Control (without rain) ([1]; 0.25 lb.) [%] | % Control (without rain) ([1]; 1 lb.) [%] | % Control (with 1" of rain) ([2]; 0.25 lb.) [%] | % Control (with 1" of rain) ([2]; 1 lb.) [%] |
| --- | --- | --- | --- | --- | --- | --- | --- | --- |
| CCCCn1cnnc1SC(C)=O [Example 115, 3-acetylmercapto-4-n-butyl-1,2,4-triazole] | 99 | 100 | 90 | 95 |  |  |  |  |
| c1ccc2sc(-n3cnnc3)nc2c1 [Example 69, 4-(2-benzothiazyl)-1,2,4-triazole] | 100 | 100 | 98 | 98 |  |  |  |  |
| CCCCCCCCCCSc1nncn1CCCC [Example 104, 3-n-decylmercapto-4-butyl-1,2,4-triazole] | 80 | 98 | 45 | 98 |  |  |  |  |
| O=[N+]([O-])c1ccc(Sc2nncn2-c2ccccc2)c([N+](=O)[O-])c1 [Example 128, 3-(2,4-dinitrophenylmercapto)-4-phenyl-1,2,4-triazole] | 100 | 100 | 84 | 90 |  |  |  |  |
| COc1ccc(CCn2cnnc2)cc1 [Example 34, 4-(4-methoxyphenethyl)-1,2,4-triazole] | 15 | 25 | 15 | 15 |  |  |  |  |
| c1cnc(-n2cnnc2)nc1 [Example 67, 4-(2-pyrimidyl)-1,2,4-triazole] | 94 | 87 |  | 97 |  |  |  |  |
| O=[N+]([O-])c1ccc(-n2cnnc2)cc1 [Example 59, 4-(4-nitrophenyl)-1,2,4-triazole] | 97 | 98 | 58 | 79 |  |  |  |  |
| CCCCn1c(C)nnc1S [Example 89, 3-mercapto-4-n-butyl-5-methyl-1,2,4-triazole] | 26 | 51 | 57 | 80 |  |  |  |  |
| CCCCn1cnnc1SC [Example 102, 3-methylmercapto-4-n-butyl-1,2,4-triazole] | 100 | 100 | 51 | 51 |  |  |  |  |
| CCCCn1cnnc1SC(=O)COC [Example 116, 3-methoxyacetylmercapto-4-n-butyl-1,2,4-triazole] | 100 | 100 | 95 | 99 |  |  |  |  |
| OCCn1cnnc1 [Example 17, 4-(2-hydroxyethyl)-1,2,4-triazole] | 60 | 5 | 0 | 0 |  |  |  |  |
| c1ccc(-n2cnnc2)cc1 [Example 54, 4-phenyl-1,2,4-triazole] | 75 | 90 | 25 | 85 |  |  |  |  |
| O=C(O)CCCn1cnnc1 [Example 44, 4-(3-carboxypropyl)-1,2,4-triazole] | 20 | 75 | 35 | 5 |  |  |  |  |
| CCC(O)Cn1cnnc1 (centres unmarked) [Example 19, 4-(2-hydroxybutyl)-1,2,4-triazole] | 65 | 65 | 0 | 0 |  |  |  |  |
| CCCCn1cnnc1SC(=O)c1cc(Cl)cc(Cl)c1 [Example 120, 3-(3,5-dichlorobenzoylmercapto)-4-n-butyl-1,2,4-triazole] | 100 | 100 | 98 | 98 |  |  |  |  |
| CC(C)(C)n1cnnc1 [Example 6, 4-t-butyl-1,2,4-triazole] | 100 | 100 | 95 | 95 |  |  |  |  |
| c1nncn1-n1cnnc1 [Example 65] | 64 | 78 |  |  |  |  |  |  |
| c1nncn1N1CCOCC1 [Example 64, 4-morpholino-1,2,4-triazole] | 88 | 94 |  |  |  |  |  |  |
| c1ccc(CCn2cnnc2)cc1 [Example 33, 4-phenethyl-1,2,4-triazole] | 100 | 100 |  |  |  |  |  |  |
| Clc1cccc(-n2cnnc2)c1 [Example 55, 4-(3-chlorophenyl)-1,2,4-triazole hydrochloride] | 100 | 100 |  |  |  |  |  |  |
